The supplement of paper PMC10307832

Legend:
Assay in all cases: relative viability (nuclei count vs DMSO), 5 days (fraction); higher = more cells survive
[1] = compound: CC(=O)Nc1cccc(-n2c(=O)n(C3CC3)c(=O)c3c(Nc4ccc(I)cc4F)n(C)c(=O)c(C)c32)c1 [Trametinib] + CC(C)C[C@H](NC(=O)[C@H](Cc1ccccc1)NC(=O)c1cnccn1)B(O)O [Bortezomib] (partner 0.002 µM)
How it was run: (§1)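 Relative viability was taken as the ratio of nuclei in treated wells to nuclei in vehicle wells. Lung cancer cell lines in 1536-well plates received compounds by pin tool one day after seeding, either one drug alone or a fixed anchor-drug dose plus five library-drug doses (not always all listed) in √10 steps. Nuclei were counted on 4× images after 5 days of treatment, and values are medians of duplicate plates.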

[2] = compound: CC(=O)Nc1cccc(-n2c(=O)n(C3CC3)c(=O)c3c(Nc4ccc(I)cc4F)n(C)c(=O)c(C)c32)c1 [Trametinib] + Cc1nc(NC(=O)N2CCC[C@H]2C(N)=O)sc1-c1ccnc(C(C)(C)C(F)(F)F)c1 [Alpelisib] (partner 2 µM)
How it was run: as §1

[3] = compound: CN1C=C(C2=CC=CC=C21)/C=C\3/C4=C(C=CC=N4)NC3=O + Nc1nc2[nH]cc(CCc3ccc(C(=O)N[C@@H](CCC(=O)O)C(=O)O)cc3)c2c(=O)[nH]1 [Pemetrexed] (partner 0.2 µM)
How it was run: as §1

[4] = compound: CN1C=C(C2=CC=CC=C21)/C=C\3/C4=C(C=CC=N4)NC3=O + O=C(CCCCCCC(=O)Nc1ccccc1)NO [Vorinostat] (partner 1 µM)
How it was run: as §1

Cell Line	relative viability ([1]; first compound 0.0025 µM)	relative viability ([1]; first compound 0.007906 µM)	relative viability ([1]; first compound 0.025 µM)	relative viability ([1]; first compound 0.07906 µM)	relative viability ([1]; first compound 0.25 µM)	relative viability ([2]; first compound 0.0025 µM)	relative viability ([2]; first compound 0.007906 µM)	relative viability ([2]; first compound 0.025 µM)	relative viability ([2]; first compound 0.07906 µM)	relative viability ([2]; first compound 0.25 µM)	relative viability ([3]; first compound 0.02 µM)	relative viability ([3]; first compound 0.6325 µM)	relative viability ([3]; first compound 2 µM)	relative viability ([4]; first compound 0.02 µM)	relative viability ([4]; first compound 0.6325 µM)	relative viability ([4]; first compound 2 µM)	relative viability ([3]; first compound 0.06325 µM)	relative viability ([3]; first compound 0.2 µM)	relative viability ([4]; first compound 0.06325 µM)	relative viability ([4]; first compound 0.2 µM)
Calu-6	1.08	0.813	0.376	0.236	0.224	0.974	0.414	0.231	0.156	0.16										
SW 900											0.474	0.512	0.486	0.588	0.352	0.463				
SK-MES-1						0.722	0.542	0.323	0.31	0.184	0.846	0.954	0.852	1.07	1.07	0.984	0.856	0.687	0.995	0.864
NCI-H1792	0.971	0.85	0.647	0.597	0.455	0.644	0.53	0.537	0.382	0.255	1.06	0.74	0.825				0.813	0.496		
LK-2						1	0.862	0.958	1.28	0.303	0.192	0.309	0.297		0.231	0.315	0.241	0.199	0.263	0.199
NCI-H1650	0.218	0.19	0.182	0.198	0.188						0.39	0.384	0.328	0.548	0.549	0.554	0.352	0.371	0.532	0.566
NCI-H2342											0.704	0.756	0.767	0.661	0.613	0.684	0.747	0.736	0.787	0.788
IA-LM	0.621	0.392	0.174	0.178	0.111	0.656	0.393	0.129	0.104	0.109				1.07		0.927			1.2	1.04
ABC-1	0.301	0.299	0.255	0.251	0.235	0.729	0.703	0.564	0.583	0.554				1.29	1.05	0.834			0.899	0.926
NCI-H1395						1.02	0.903	1.39	1.09	0.652	0.82	0.845	0.815	0.679	0.662	0.604	0.739	0.707	0.725	0.564
EBC-1	0.631	0.544	0.427	0.376	0.337	0.901	0.65	0.313	0.21	0.206										
